Where a name gives a salt, the structure may show the parent alone.
How the values were obtained:
[1] = Dynamic moisture sorption (DMS) assessment; format: physicochemical; conditions: for weight gain when exposed to up to 90% relative humidity / level of hygroscopicity: DMS; for weight gain when exposed to up to 90% relative humidity: up to 90% RH; for deliquescence: exposed to up to 90% relative humidity
Protocol: A dynamic moisture sorption (DMS) assessment (also known as a moisture sorption-desorption profile) was performed for samples of a crystalline hemiedisylate (prepared as described in Example 2) and a heminapadisylate (prepared as described in Example 5) salt using a VTI atmospheric microbalance, SGA-100 system (VTI Corp., Hialeah, Fla. 33016). A sample size of approximately 10 mg was used and the humidity was set at the ambient value at the start of the analysis. A typical DMS analysis consisted of three scans: ambient to 2% relative humidity (RH), 2% RH to 90% RH, 90% RH to 5% RH at a scan rate of 5% RH/step. The mass was measured every two minutes and the RH was changed stepwise to the next value (+/−5% RH) when the mass of the sample was stable to within 0.02% for 5 consecutive points.

[2] = 5° C./min
Protocol: Differential scanning calorimetry (DSC) was performed using a TA Instruments Model Q-10 module with a Thermal Analyst controller. Data were collected and analyzed using TA Instruments Thermal Solutions software. A sample of about 1 mg was accurately weighed into an aluminum pan with lid. The sample was evaluated using a linear heating ramp of 5° C./min from ambient temperature to approximately 300° C. The DSC cell was purged with dry nitrogen during use.

[3] = 0.2 mg/mL freebase equivalents in 10 mM citrate buffered normal saline, pH 4.5; one month at 40° C./75% RH
Protocol: A solution was prepared with 0.2 mg/mL freebase equivalents (using a crystalline heminapadisylate salt prepared as described in Example 5) in 10 mM citrate buffered normal saline, pH 4.5. Less than 0.5% degradation was observed after storage for one month at 40° C./75% RH.

[4] = Solid state stability assessment (HPLC); conditions: about 1 month at 40° C. and 75% RH
Protocol: These stock solutions were diluted to 1 mg/mL in 10% ACN for injection onto the HPLC.

Compound: CN(CCN1CCC(OC(=O)Nc2ccccc2-c2ccccc2)CC1)C(=O)c1cccc(C(=O)NCCNCc2ccc(O)cc2)c1 [crystalline diacetate salt]
- weight gain when exposed to up to 90% relative humidity [1]: less than 18%

Compound: CN(CCN1CCC(OC(=O)Nc2ccccc2-c2ccccc2)CC1)C(=O)c1cccc(C(=O)NCCNCc2ccc(O)cc2)c1 [crystalline dipropionate salt]
- weight gain when exposed to up to 90% relative humidity [1]: less than 11%

Compound: CN(CCN1CCC(OC(=O)Nc2ccccc2-c2ccccc2)CC1)C(=O)c1cccc(C(=O)NCCNCc2ccc(O)cc2)c1 [crystalline freebase (Form I), Crystalline Freebase Biphenyl-2-ylcarbamic Acid 1-[2-({3-[2-(4-Hydroxybenzylamino)ethylcarbamoyl]benzoyl}methylamino)ethyl]piperidin-4-yl Ester (Form I)]
- no thermal decomposition below (DSC trace) [2]: ≥ 95 °C

Compound: CN(CCN1CCC(OC(=O)Nc2ccccc2-c2ccccc2)CC1)C(=O)c1cccc(C(=O)NCCNCc2ccc(O)cc2)c1 [crystalline freebase (Form II), Crystalline Freebase Biphenyl-2-ylcarbamic Acid 1-[2-({3-[2-(4-Hydroxybenzylamino)ethylcarbamoyl]benzoyl}methylamino)ethyl]piperidin-4-yl Ester (Form II)]
- no thermal decomposition below (DSC trace) [2]: ≥ 110 °C

Compound: CN(CCN1CCC(OC(=O)Nc2ccccc2-c2ccccc2)CC1)C(=O)c1cccc(C(=O)NCCNCc2ccc(O)cc2)c1.CN(CCN1CCC(OC(=O)Nc2ccccc2-c2ccccc2)CC1)C(=O)c1cccc(C(=O)NCCNCc2ccc(O)cc2)c1.O=S(=O)(O)CCS(=O)(=O)O [crystalline hemiedisylate salt, Crystalline Hemiedisylate Salt of Biphenyl-2-ylcarbamic Acid 1-[2-({3-[2-(4-Hydroxybenzylamino)ethylcarbamoyl]benzoyl}methylamino)ethyl]piperidin-4-yl Ester]
- level of hygroscopicity [1]: moderate and low
- weight gain when exposed to up to 90% relative humidity [1]: less than 4%
- deliquescence [1]: not deliquescent
- no thermal decomposition below (DSC trace) [2]: ≥ 190 °C

Compound: CN(CCN1CCC(OC(=O)Nc2ccccc2-c2ccccc2)CC1)C(=O)c1cccc(C(=O)NCCNCc2ccc(O)cc2)c1.CN(CCN1CCC(OC(=O)Nc2ccccc2-c2ccccc2)CC1)C(=O)c1cccc(C(=O)NCCNCc2ccc(O)cc2)c1.O=S(=O)(O)c1cccc2c(S(=O)(=O)O)cccc12 [crystalline heminapadisylate salt, Crystalline Heminapadisylate Salt of Biphenyl-2-ylcarbamic Acid 1-[2-({3-[2-(4-Hydroxybenzylamino)ethylcarbamoyl]benzoyl}methylamino)ethyl]piperidin-4-yl Ester]
- degradation of inhalation solution after storage [3]: Less than 0.5%
- weight gain in the humidity range of 40-75% RH ([1]; 40-75% RH): 0.46%
- level of hygroscopicity [1]: low
- weight gain when exposed to up to 90% relative humidity [1]: less than 2%
- deliquescence [1]: not deliquescent
- no thermal decomposition below (DSC trace) [2]: ≥ 220 °C
- chemical degradation by HPLC after storage [4]: less than 0.5%

Compound: CN(CCN1CCC(OC(=O)Nc2ccccc2-c2ccccc2)CC1)C(=O)c1cccc(C(=O)NCCNCc2ccc(O)cc2)c1 [crystalline monooxalate salt]
- weight gain when exposed to up to 90% relative humidity [1]: less than 14%

Source: US7973055B2, “Crystalline forms of a biphenyl compound” (Theravance, Inc., priority 2006, dated 2011)
